Measurements: US8648198B2, “Phenylethanolamine-based NMDA receptor antagonists” (priority 2011, dated 2014)
Read-outs that look alike come from different tables or passages of the source.

Legend:
[1] = molecular target: T1, GluN1-1b (A75Q)/GluN2B (WT) (Rattus norvegicus, UniProt P35439+Q00960, A75Q); test: Ifenprodil dose-response, recordings from Xenopus oocytes; assay type: cell-based; conditions: mean ± s.d.
T1 construct: expressed in transfected cells; host or cells: Xenopus oocytes (per the earlier reading)

GluN1b ATD = test: Isothermal titration calorimetry (ITC), GluN1b ATD alone; assay type: binding, Xenopus laevis; conditions: GluN1b ATD individually injected with ifenprodil
[2] = molecular target: T2, GluN1-4b (Asn70Cys)/GluN2B (Thr324Cys) (Rattus norvegicus, UniProt P35439+Q00960, N70C/T324C); test: Ion channel activity of cysteine mutant receptors by TEVC (R1-R1 cross-link); assay type: cell-based
T2 construct: expressed in transfected cells
Source text: (§1) To further validate the physiological relevance of the hetero-dimeric assembly, cysteine mutants at the subunit interface were engineered using the ifenprodil-bound GluN1b/GluN2B ATD structure as a guide in a context of the intact rat GluN1-4b/GluN2B receptors so that they would form spontaneous disulphide bonds if the mutated residues are proximal to each others. Toward this end, two pairs of cysteine mutants, GluN1-4b (Asn70Cys)/GluN2B (Thr324Cys) and GluN1-4b (Leu341Cys)/GluN2B (Asp210Cys) were designed, which “locked” the R1-R1 and R1-R2 interfaces, respectively FIG. 12a-b). The mutant receptors were then expressed in a mammalian cell culture, and analyzed for formation of disulphide-linked oligomers in western blots. When mutant receptors of one subunit were expressed with wild-type receptors of the other, they gave rise to monomeric bands (110 KDa and 170 KDa for GluN1-4b and GluN2B, respectively; arrow 2 and 3) identical to the wild-type GluN1-4b/GluN2B receptors in both reducing and non-reducing condition. […]
(§2) To understand the functional effects of “locking” the R1-R1 and R1-R2 interactions in the GluN1b/GluN2B ATDs, the ion channel activities of the cysteine mutant receptors were measured by TEVC. […]

[3] = molecular target: T3, GluN1-1b (WT)/GluN2B (Q110A) (Rattus norvegicus, UniProt P35439+Q00960, Q110A); test: Ifenprodil dose-response, recordings from Xenopus oocytes; assay type: cell-based; conditions: mean ± s.d.
T3 construct: expressed in transfected cells; host or cells: Xenopus oocytes (per the earlier reading)

[4] = molecular target: mixture of the GluN1b and GluN2B ATD proteins (Xenopus laevis (GluN1-4b ATD) / Rattus norvegicus (GluN2B ATD), UniProt A0A1L8F5J9+Q00960, E186G/INS190SKKRNYENLDQLSYDNKRGPK/N350Q/N61Q); test: Isothermal titration calorimetry (ITC), direct binding to mixed ATD proteins; parameters: species or system Xenopus laevis GluN1-4b / Rattus Norvegicus GluN2B
[5] = molecular target: T4, GluN1-1b (WT)/GluN2B (I111S) (Rattus norvegicus, UniProt P35439+Q00960, I111S); test: Ifenprodil dose-response, recordings from Xenopus oocytes; assay type: cell-based; conditions: mean ± s.d.
T4 construct: expressed in transfected cells; host or cells: Xenopus oocytes (per the earlier reading)

[6] = molecular target: T5, GluN1-1b (L135N)/GluN2B (WT) (Rattus norvegicus, UniProt P35439+Q00960, L135N); test: as above; assay type: cell-based; conditions: mean ± s.d.
T5 construct: expressed in transfected cells; host or cells: Xenopus oocytes (per the earlier reading)

[7] = molecular target: T6, GluN1/GluN2A receptors, GluN2A Met112Ile (Rattus norvegicus, UniProt P35439+Q00959, M112I); test: Ifenprodil sensitivity of mutant GluN1/GluN2A receptors; assay type: cell-based; conditions: GluN2A Met112Ile in GluN1/GluN2A receptors
T6 construct: expressed in transfected cells
Source text: Thus, the insensitivity of the GluN1/GluN2A receptors to phenylethanolamine may stem from a fundamental difference in a mode of subunit association between GluN1/GluN2A and GluN1/GluN2B at ATD.

[8] = molecular target: T7, GluN1-1b (WT)/GluN2B (I111M) (Rattus norvegicus, UniProt P35439+Q00960, I111M); test: Ifenprodil dose-response, recordings from Xenopus oocytes; assay type: cell-based; conditions: mean ± s.d.
T7 construct: expressed in transfected cells; host or cells: Xenopus oocytes (per the earlier reading)

[9] = molecular target: T8, GluN1-1b (F113S)/GluN2B (WT) (Rattus norvegicus, UniProt P35439+Q00960, F113S); test: as above; assay type: cell-based; conditions: mean ± s.d.
T8 construct: expressed in transfected cells; host or cells: Xenopus oocytes (per the earlier reading)

[10] = molecular target: T9, GluN1-1a (WT)/GluN2B (WT) (Rattus norvegicus, UniProt P35439+Q00960); test: as above; assay type: cell-based; conditions: mean ± s.d.
T9 construct: expressed in transfected cells; host or cells: Xenopus oocytes (per the earlier reading)

[11] = molecular target: T10, GluN1-1b (WT)/GluN2B (WT) (Rattus norvegicus, UniProt P35439+Q00960); test: as above; assay type: cell-based; conditions: mean ± s.d.
T10 construct: expressed in transfected cells; host or cells: Xenopus oocytes (per the earlier reading)

GluN2B ATD = test: Isothermal titration calorimetry (ITC), GluN2B ATD alone; assay type: binding, Rattus Norvegicus; conditions: GluN2B ATD individually injected with ifenprodil
[12] = molecular target: T11, GluN1-4b (Leu341Cys)/GluN2B (Asp210Cys) (Rattus norvegicus, UniProt P35439+Q00960, D210C/L320C); test: Ion channel activity of cysteine mutant receptors by TEVC (R1-R2 cross-link); assay type: cell-based; conditions: R1-R2 cross-link broken by application of DTT
T11 construct: expressed in transfected cells
Source text: as §1, §2

[13] = molecular target: T12, GluN1-4b (Leu341Cys)/GluN2B (Asp210Cys) (Rattus norvegicus, UniProt P35439+Q00960); test: as above; assay type: cell-based; conditions: R1-R2 cross-link, non-reducing, even at 3 μM ifenprodil
T12 construct: expressed in transfected cells
Source text: as §1, §2

[14] = molecular target: T13, GluN1-1b (WT)/GluN2B (I82S) (Rattus norvegicus, UniProt P35439+Q00960, I82S); test: Ifenprodil dose-response, recordings from Xenopus oocytes; assay type: cell-based; conditions: mean ± s.d.
T13 construct: expressed in transfected cells; host or cells: Xenopus oocytes (per the earlier reading)
T13 sequence (Q00960 27-1482 I82S, other chains not shown): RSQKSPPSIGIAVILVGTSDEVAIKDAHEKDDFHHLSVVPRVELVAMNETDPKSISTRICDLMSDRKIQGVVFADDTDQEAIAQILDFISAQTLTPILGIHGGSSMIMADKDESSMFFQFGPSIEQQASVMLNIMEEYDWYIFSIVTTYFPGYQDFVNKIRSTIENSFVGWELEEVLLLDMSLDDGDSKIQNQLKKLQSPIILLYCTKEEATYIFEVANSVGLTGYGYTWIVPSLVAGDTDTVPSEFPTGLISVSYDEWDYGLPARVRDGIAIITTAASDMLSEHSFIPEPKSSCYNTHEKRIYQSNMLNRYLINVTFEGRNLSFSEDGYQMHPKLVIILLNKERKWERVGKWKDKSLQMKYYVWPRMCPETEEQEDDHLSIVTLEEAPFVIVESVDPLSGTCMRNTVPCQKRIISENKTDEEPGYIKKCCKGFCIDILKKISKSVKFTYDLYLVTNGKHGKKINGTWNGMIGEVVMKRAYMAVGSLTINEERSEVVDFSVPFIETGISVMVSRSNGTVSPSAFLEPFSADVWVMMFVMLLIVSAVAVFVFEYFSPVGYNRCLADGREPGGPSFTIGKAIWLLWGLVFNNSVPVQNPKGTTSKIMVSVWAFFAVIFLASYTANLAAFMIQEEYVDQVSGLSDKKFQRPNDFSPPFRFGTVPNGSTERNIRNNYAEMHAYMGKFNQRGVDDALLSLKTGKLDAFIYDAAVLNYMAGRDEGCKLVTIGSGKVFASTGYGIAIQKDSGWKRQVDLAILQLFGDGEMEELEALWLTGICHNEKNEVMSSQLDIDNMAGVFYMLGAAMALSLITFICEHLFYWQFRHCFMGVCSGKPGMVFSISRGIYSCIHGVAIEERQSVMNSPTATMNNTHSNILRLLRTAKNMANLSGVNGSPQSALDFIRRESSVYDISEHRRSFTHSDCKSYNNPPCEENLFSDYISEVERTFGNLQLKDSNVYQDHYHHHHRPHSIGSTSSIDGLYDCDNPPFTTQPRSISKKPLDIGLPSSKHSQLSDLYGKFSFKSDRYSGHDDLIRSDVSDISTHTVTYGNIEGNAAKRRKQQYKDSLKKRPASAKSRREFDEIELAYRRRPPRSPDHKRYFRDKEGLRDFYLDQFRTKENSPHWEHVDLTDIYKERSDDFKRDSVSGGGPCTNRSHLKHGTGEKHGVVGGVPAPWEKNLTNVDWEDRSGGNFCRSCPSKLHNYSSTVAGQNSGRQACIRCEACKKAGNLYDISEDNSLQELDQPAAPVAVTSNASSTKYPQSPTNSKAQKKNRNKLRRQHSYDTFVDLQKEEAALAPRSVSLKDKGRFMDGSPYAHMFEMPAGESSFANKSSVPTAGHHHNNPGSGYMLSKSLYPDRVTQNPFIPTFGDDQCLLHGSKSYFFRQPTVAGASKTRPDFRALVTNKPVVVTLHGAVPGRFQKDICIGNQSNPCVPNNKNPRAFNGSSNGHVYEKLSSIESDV

Chain of mixture of the GluN1b and GluN2B ATD proteins (Q00960 31-394, stated change not applied, other chains not shown): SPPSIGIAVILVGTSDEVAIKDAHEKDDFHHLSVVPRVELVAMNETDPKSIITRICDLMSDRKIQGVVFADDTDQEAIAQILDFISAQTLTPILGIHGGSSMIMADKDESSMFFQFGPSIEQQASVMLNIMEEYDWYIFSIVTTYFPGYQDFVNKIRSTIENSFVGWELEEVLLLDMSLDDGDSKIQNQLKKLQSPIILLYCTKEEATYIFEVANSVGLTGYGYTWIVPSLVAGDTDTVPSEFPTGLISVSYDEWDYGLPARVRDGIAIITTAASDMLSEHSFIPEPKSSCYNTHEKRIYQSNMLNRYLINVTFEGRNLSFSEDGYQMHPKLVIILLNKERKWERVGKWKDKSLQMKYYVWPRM
T2 sequence (Q00960 27-1482 T324C, other chains not shown): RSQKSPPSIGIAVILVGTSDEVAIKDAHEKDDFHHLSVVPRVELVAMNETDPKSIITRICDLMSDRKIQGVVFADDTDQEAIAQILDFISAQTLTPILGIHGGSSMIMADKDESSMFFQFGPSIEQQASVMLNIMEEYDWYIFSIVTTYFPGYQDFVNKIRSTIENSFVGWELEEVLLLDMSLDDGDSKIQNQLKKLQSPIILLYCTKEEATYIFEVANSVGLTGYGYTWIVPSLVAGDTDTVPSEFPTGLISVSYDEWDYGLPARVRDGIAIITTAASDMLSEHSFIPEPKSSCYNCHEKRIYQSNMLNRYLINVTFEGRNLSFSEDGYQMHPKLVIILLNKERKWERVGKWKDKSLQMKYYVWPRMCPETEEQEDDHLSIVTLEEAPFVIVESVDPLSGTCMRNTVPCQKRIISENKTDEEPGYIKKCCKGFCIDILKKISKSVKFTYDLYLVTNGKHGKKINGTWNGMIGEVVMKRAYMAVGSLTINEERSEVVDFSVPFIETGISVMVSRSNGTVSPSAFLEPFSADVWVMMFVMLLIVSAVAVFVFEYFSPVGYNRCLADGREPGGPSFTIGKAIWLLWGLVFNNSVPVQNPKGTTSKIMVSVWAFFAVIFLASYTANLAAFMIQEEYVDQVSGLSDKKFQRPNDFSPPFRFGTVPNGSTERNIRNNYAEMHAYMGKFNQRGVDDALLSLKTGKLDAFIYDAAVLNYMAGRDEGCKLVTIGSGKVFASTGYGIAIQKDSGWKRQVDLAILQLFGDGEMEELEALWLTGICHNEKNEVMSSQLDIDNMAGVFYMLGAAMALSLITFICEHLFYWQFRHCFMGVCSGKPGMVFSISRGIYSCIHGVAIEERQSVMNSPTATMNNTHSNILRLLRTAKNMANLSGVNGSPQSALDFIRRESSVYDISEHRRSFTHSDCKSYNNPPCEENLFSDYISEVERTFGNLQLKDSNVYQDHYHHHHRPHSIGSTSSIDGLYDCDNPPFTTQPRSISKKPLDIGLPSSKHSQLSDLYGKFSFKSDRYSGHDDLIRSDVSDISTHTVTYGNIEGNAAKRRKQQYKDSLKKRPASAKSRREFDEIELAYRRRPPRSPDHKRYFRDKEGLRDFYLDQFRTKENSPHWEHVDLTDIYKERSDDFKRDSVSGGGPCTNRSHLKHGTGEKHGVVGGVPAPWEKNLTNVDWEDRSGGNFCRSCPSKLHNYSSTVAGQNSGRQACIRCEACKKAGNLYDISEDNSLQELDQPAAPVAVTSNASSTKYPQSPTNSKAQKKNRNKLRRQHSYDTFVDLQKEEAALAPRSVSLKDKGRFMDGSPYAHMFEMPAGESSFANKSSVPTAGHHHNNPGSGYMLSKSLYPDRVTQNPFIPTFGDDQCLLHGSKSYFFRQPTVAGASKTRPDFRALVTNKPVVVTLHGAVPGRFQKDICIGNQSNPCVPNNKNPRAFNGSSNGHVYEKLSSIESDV
T7 sequence (Q00960 27-1482 I111M, other chains not shown): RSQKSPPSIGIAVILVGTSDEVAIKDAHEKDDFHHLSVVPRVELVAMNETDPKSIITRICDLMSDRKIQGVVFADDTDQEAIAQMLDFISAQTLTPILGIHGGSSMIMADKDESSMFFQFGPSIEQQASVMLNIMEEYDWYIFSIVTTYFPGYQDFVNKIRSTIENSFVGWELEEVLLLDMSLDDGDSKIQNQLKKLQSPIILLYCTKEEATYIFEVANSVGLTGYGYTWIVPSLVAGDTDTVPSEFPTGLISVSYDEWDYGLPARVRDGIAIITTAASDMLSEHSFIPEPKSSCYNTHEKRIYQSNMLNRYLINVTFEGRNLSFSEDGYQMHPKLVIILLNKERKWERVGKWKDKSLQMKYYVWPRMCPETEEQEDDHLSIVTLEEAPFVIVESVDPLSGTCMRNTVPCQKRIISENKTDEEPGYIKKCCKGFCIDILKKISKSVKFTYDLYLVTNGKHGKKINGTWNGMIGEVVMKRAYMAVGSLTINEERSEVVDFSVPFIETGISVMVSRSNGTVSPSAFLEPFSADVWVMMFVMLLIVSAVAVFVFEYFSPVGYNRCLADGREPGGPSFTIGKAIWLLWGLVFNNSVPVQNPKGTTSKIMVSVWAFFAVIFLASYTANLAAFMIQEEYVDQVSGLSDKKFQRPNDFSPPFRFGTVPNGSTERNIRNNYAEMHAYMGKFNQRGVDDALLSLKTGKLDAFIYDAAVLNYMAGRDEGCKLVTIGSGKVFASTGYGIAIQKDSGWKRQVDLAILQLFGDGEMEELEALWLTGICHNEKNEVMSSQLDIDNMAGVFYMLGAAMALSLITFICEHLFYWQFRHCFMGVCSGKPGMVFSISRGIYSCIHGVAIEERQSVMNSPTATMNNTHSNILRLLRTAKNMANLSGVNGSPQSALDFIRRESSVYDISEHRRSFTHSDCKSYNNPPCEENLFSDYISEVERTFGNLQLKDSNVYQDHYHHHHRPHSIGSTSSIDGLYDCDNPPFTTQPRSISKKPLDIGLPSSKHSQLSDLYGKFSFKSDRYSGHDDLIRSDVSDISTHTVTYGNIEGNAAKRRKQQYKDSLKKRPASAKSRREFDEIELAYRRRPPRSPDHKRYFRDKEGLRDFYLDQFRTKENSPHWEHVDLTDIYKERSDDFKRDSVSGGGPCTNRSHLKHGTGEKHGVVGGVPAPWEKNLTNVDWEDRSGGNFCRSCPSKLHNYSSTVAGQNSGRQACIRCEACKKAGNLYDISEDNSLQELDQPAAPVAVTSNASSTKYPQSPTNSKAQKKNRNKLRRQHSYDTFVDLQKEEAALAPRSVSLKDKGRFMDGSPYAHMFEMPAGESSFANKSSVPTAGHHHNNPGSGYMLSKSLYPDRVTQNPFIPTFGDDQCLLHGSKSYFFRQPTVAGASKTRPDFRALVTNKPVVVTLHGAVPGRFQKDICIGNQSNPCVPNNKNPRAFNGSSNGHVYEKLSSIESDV

SMILES	% inhibition [1]	binding (heat) by ITC (GluN1b ATD)	effect of the disulphide bond on ifenprodil sensitivity [2]	% inhibition [3]	Kd [4]	% inhibition [5]	% inhibition [6]	ifenprodil sensitivity [7]	% inhibition [8]	% inhibition [9]	% inhibition [10]	% inhibition [11]	binding (heat) by ITC (GluN2B ATD)	ifenprodil sensitivity after breaking the disulphide cross-link [12]	ifenprodil inhibition [13]	% inhibition [14]	Kd ([4]; ITC, mixture of GluN1b and GluN2B ATD proteins, read-out: Kd)
C[C@@H]([C@H](O)c1ccc(O)cc1)N1CCC(Cc2ccccc2)CC1 (racemic) [ifenprodil]	82.1 ± 1.4%	no evidence of binding	only a minor effect	91.5 ± 2.2%	320 nM	69.3 ± 2.6%	90.0 ± 3.7%	did not confer	93.0 ± 2.2%	87.7 ± 1.4%	95.0 ± 2.5%	95.2 ± 2.0%	no evidence of binding	regain sensitivity to ifenprodil	almost completely abolished	55.7 ± 0.7%	–
C[C@@H](CN1CCC(Cc2ccccc2)CC1)[C@@H](O)c1ccc(O)cc1 [Ro 25-6981]	–	–	–	–	–	–	–	–	–	–	–	–	–	–	–	–	60 nM
